Assays:
full-length human BTK = biological target: T1, full-length human BTK (Homo sapiens, UniProt Q06187); assay: Assay A: BTK IC50 Enzyme Assay (microfluidic off-chip mobility shift kinase assay); type: biochemical; settings: full-length human BTK, kinKDR peptide substrate, incubated 90 min at 27 C; read-out: Assay A (Time Dependent BTK Enzyme Assay IC50)
T1 construct: 2.5× stocks of full-length human BTK (08-080); purchased CarnaBio USA, Inc., Natick, Mass; 08-080
In short: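 Off-chip microfluidic mobility shift assay with full-length human BTK; phosphorylated and unphosphorylated peptide substrate were separated by charge/mass on a LabChip 3000.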

BTK in human whole blood = biological target: T2, BTK in human whole blood (Homo sapiens, UniProt Q06187); assay: Assay C: Time Dependent Human Whole Blood IC50 Assay; type: cell-based; settings: read-out: Assay C (Time Dependent Human Whole Blood BTK Enzyme Assay IC50)
T2 construct: endogenous in cells; host or cells: human whole blood
T2 sequence (Q06187 whole entry): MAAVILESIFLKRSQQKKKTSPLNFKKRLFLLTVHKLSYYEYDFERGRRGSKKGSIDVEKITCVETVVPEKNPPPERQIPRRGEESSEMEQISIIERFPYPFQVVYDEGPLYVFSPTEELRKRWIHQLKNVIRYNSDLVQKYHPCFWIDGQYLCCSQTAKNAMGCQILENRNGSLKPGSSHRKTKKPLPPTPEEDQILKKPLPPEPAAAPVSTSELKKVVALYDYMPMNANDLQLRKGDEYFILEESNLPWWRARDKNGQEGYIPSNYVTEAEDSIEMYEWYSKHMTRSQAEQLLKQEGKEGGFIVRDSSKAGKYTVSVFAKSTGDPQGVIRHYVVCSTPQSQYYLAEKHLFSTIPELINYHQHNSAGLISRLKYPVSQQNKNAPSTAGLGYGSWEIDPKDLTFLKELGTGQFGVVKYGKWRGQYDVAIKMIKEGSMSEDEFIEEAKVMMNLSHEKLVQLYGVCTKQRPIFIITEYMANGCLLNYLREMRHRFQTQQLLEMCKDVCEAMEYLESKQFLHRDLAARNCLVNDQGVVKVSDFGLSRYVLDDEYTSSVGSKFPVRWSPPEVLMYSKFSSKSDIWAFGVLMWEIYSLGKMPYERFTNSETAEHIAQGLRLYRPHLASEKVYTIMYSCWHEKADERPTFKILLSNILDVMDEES
Description: Assay C: Time Dependent Human Whole Blood IC50 Assay
Compounds described by embodiments of the present invention were assayed using a human whole blood assay. The data from the same is recorded in Table 2 within the column labeled: “Time Dependent Human Whole Blood BTK Enzyme Assay IC50”.

PBMC = assay: Assay B: Time Dependent PMBC IC50 Assay; type: cell-based
Description: Assay B: Time Dependent PMBC IC50 Assay
Compounds described by embodiments of the present invention were assayed using a time dependent PMBC assay. The data from the same is recorded in Table 2 within the column labeled: “Time Dependent PBMC Assay IC50.” These IC50 values are reported in ranges wherein: I<1 uM and II>1 uM.

T1 sequence (Q06187 whole entry): as above

SMILES | IC50 (full-length human BTK) | IC50 (BTK in human whole blood) | IC50 (PBMC)
C=CC(=O)N[C@H]1CCN(c2nc(Nc3ccc(N4CCC(F)(F)CC4)cc3)c(C(N)=O)cc2F)C1 [Compound 180, 6-((S)-3-Acryloylamino-pyrrolidin-1-yl)-2-[4-(4,4-difluoro-piperidin-1-yl)-phenylamino]-5-fluoro-nicotinamide] | < 100 nM | 100 to 1000 nM | < 100 nM
C=CC(=O)N[C@H]1CCN(c2ncc(C(N)=O)c(Nc3ccc(C(=O)NC(C)(C)C)cc3)n2)C1 [Compound 139, (S)-2-(3-acrylamidopyrrolidin-1-yl)-4-((4-(tert-butylcarbamoyl)phenyl)amino)pyrimidine-5-carboxamide] | < 100 nM | < 100 nM | < 100 nM
C=CC(=O)N[C@H]1CCN(c2nc(Nc3ccc(N4CC(C)OC(C)C4)cc3)c(C(N)=O)cc2F)C1 (stereo partly drawn) [Compound 188, 6-((S)-3-Acryloylamino-pyrrolidin-1-yl)-2-[4-(2,6-dimethyl-morpholin-4-yl)-phenylamino]-5-fluoro-nicotinamide] | < 100 nM | – | < 100 nM
C=CC(=O)N1CC=C(c2ccc(C(N)=O)c(Nc3ccc(CCN4CCCC4)cc3)n2)CC1 [Compound 17, 1′-Acryloyl-6-[4-(2-pyrrolidin-1-yl-ethyl)-phenylamino]-1′,2′,3′,6′-tetrahydro-[2,4′]bipyridinyl-5-carboxylic acid amide] | < 100 nM | – | < 100 nM
N#CN[C@@H]1CCCN(c2ccc(C(N)=O)c(Nc3ccc(C(=O)N4CCOCC4)cc3)n2)C1 [Compound 227, (R)-3-Cyanoamino-6′-[4-(morpholine-4-carbonyl)-phenylamino]-3,4,5,6-tetrahydro-2H-[1,2′]bipyridinyl-5′-carboxylic acid amide] | 100 to 1000 nM | – | > 5000 nM
C=CC(=O)N1CCC(c2cnc(C(N)=O)c(NC(C)=O)c2)CC1 [Compound 134] | < 100 nM | – | 100 to 1000 nM
C=CC(=O)N[C@H]1CCN(c2ccc(C(N)=O)c(Nc3ccc(F)nc3)n2)C1 [Compound 46, 6-((S)-3-Acryloylamino-pyrrolidin-1-yl)-2-(6-fluoro-pyridin-3-ylamino)-nicotinamide] | < 100 nM | 1000 to 5000 nM | < 100 nM
C=CC(=O)NC1CN(c2ncc(C(N)=O)c(Oc3ccc(Oc4ccccc4)cc3)n2)C1 [Compound 174, 2-(3-Acryloylamino-azetidin-1-yl)-4-(4-phenoxy-phenoxy)-pyrimidine-5-carboxylic acid amide] | < 100 nM | 100 to 1000 nM | < 100 nM
C=CC(=O)N1C[C@@H]2C[C@H]1CN2c1ccc(C(N)=O)c(Nc2ccc(CCN3CCCC3)cc2)n1 [Compound 9, 6-((1S,4S)-5-Acryloyl-2,5-diaza-bicyclo[2.2.1]hept-2-yl)-2-[4-(2-pyrrolidin-1-yl-ethyl)-phenylamino]-nicotinamide] | < 100 nM | < 100 nM | < 100 nM
C=CC(=O)N1CCC=C(c2ccc(C(N)=O)c(Nc3ccc(CCN4CCCC4)cc3)n2)C1 [Compound 44, 1′-Acryloyl-6-[4-(2-pyrrolidin-1-yl-ethyl)-phenylamino]-1′,2′,5′,6′-tetrahydro-[2,3′]bipyridinyl-5-carboxylic acid amide] | < 100 nM | – | 100 to 1000 nM
C=CC(=O)N1CCC(c2ccc(C(N)=O)c(Nc3ccc(C(=O)N4CCCCC4)cc3)n2)CC1 [Compound 22, 1′-Acryloyl-6-[4-(piperidine-1-carbonyl)-phenylamino]-1′,2′,3′,4′,5′,6′-hexahydro-[2,4′]bipyridinyl-5-carboxylic acid amide] | < 100 nM | – | < 100 nM
C=CC(=O)N1CCC(c2ccc(C(N)=O)c(Nc3ccc(OC4CCN(C)CC4)cc3)n2)CC1 [Compound 10, 1′-Acryloyl-6-[4-(1-methyl-piperidin-4-yloxy)-phenylamino]-1′,2′,3′,4′,5′,6′-hexahydro-[2,4′]bipyridinyl-5-carboxylic acid amide] | < 100 nM | – | < 100 nM
N#CN1CCC[C@H](c2cnc(Oc3ccc(Oc4ccccc4)cc3)c(C(N)=O)c2)C1 [Compound 241, (R)-5-(1-cyanopiperidin-3-yl)-2-(4-phenoxyphenoxy)nicotinamide] | < 100 nM | – | 100 to 1000 nM
C=CC(=O)N[C@H]1CCN(c2nc(Nc3ccc(C(=O)NC(C)(C)C)cc3)c(F)cc2C(N)=O)C1 [Compound 3, (S)-2-(3-acrylamidopyrrolidin-1-yl)-6-((4-(tert-butylcarbamoyl)phenyl)amino)-5-fluoronicotinamide] | < 100 nM | < 100 nM | < 100 nM
C=CC(=O)N1CCN(c2ccc(C(N)=O)c(Nc3ccc(CCN4CCCC4)cc3)n2)CC1 [Compound 12, 6-(4-Acryloyl-piperazin-1-yl)-2-[4-(2-pyrrolidin-1-yl-ethyl)-phenylamino]-nicotinamide] | < 100 nM | – | < 100 nM
C=CC(=O)N1CCN(c2ncc(C(N)=O)c(Oc3ccc(Oc4ccccc4)cc3)n2)CC1 [Compound 173, 2-(4-Acryloyl-piperazin-1-yl)-4-(4-phenoxy-phenoxy)-pyrimidine-5-carboxylic acid amide] | < 100 nM | – | < 100 nM
C=CC(=O)N1C2C=C(c3ccc(C(N)=O)c(Oc4ccc(Oc5ccccc5)cc4)n3)CC1CC2 (stereo not drawn) [Compound 65, 6-(8-Acryloyl-8-aza-bicyclo[3.2.1]oct-2-en-3-yl)-2-(4-phenoxy-phenoxy)-nicotinamide] | < 100 nM | 100 to 1000 nM | < 100 nM
C=CC(=O)Nc1cncc(-c2ccc(C(N)=O)c(Oc3ccc(Oc4ccccc4)cc3)n2)c1 [Compound 75, 5′-acrylamido-6-(4-phenoxyphenoxy)-[2,3′-bipyridine]-5-carboxamide] | < 100 nM | – | < 100 nM
C=CC(=O)N[C@H]1CCN(c2ccc(C(N)=O)c(Nc3ccc(N4C[C@@H](C)O[C@@H](C)C4)nc3)n2)C1 [Compound 37, 6-((S)-3-Acryloylamino-pyrrolidin-1-yl)-2-[6-(cis-2,6-dimethyl-morpholin-4-yl)-pyridin-3-ylamino]-nicotinamide] | < 100 nM | 100 to 1000 nM | < 100 nM
C=CC(=O)N[C@H]1CCN(c2ccc(C(N)=O)c(Nc3ccc(C4CCN(C)CC4)cc3)n2)C1 [Compound 14, 6-((S)-3-Acryloylamino-pyrrolidin-1-yl)-2-[4-(1-methyl-piperidin-4-yl)-phenylamino]-nicotinamide] | < 100 nM | – | < 100 nM
C=CC(=O)N[C@H]1CCN(c2ccc(C(N)=O)c(Nc3ccc(OC)cc3)n2)C1 [Compound 45, 6-((S)-3-Acryloylamino-pyrrolidin-1-yl)-2-(4-methoxy-phenylamino)-nicotinamide] | < 100 nM | 100 to 1000 nM | –
C=CC(=O)N[C@H]1CCN(c2ccc(C(N)=O)c(Nc3ccc(C(=O)N4CCN(C)CC4)cc3)n2)C1 [Compound 11, (S)-6-(3-acrylamidopyrrolidin-1-yl)-2-((4-(4-methylpiperazine-1 carbonyl)phenyl)amino)nicotinamide] | < 100 nM | 100 to 1000 nM | < 100 nM
C=CC(=O)N1CC=C(c2ccc(C(N)=O)c(Oc3ccc(Oc4ccccc4)cc3)n2)CC1 [Compound 69, 1′-acryloyl-6-(4-phenoxyphenoxy)-1′,2′,3′,6′-tetrahydro-[2,4′-bipyridine]-5-carboxamide] | < 100 nM | 100 to 1000 nM | < 100 nM
C=CC(=O)N[C@@H]1CN(c2ccc(C(N)=O)c(Nc3ccc(CCN4CCCC4)cc3)n2)CC12CC2 [Compound 7, 6-((S)-7-Acryloylamino-5-aza-spiro[2.4]hept-5-yl)-2-[4-(2-pyrrolidin-1-yl-ethyl)-phenylamino]-nicotinamide] | < 100 nM | – | < 100 nM
C=CC(=O)N1CCC(c2ccc(C(N)=O)c(Nc3ccc(CCN4CCCC4)cc3)n2)CC1 [Compound 18, 1′-Acryloyl-6-[4-(2-pyrrolidin-1-yl-ethyl)-phenylamino]-1′,2′,3′,4′,5′,6′-hexahydro-[2,4′]bipyridinyl-5-carboxylic acid amide] | < 100 nM | – | < 100 nM
C=CC(=O)N(C)[C@H]1CCN(c2ccc(C(N)=O)c(Nc3ccc(CCN4CCCC4)cc3)n2)C1 [Compound 30, 6-[(S)-3-(Acryloyl-methyl-amino)-pyrrolidin-1-yl]-2-[4-(2-pyrrolidin-1-yl-ethyl)-phenylamino]-nicotinamide] | < 100 nM | – | < 100 nM
C=CC(=O)N[C@H]1CCN(c2ccc(C(N)=O)c(Nc3ccc(C(=O)N4CC(C)OC(C)C4)cc3)n2)C1 (stereo partly drawn) [Compound 40, 6-((S)-3-Acryloylamino-pyrrolidin-1-yl)-2-[4-(2,6-dimethyl-morpholine-4-carbonyl)-phenylamino]-nicotinamide] | < 100 nM | – | 100 to 1000 nM
C=CC(=O)N[C@H]1CCN(c2ccc(C(N)=O)c(Nc3ccc(CCN4CCCC4)cc3)n2)C1 [Compound 16, 6-((S)-3-Acryloylamino-pyrrolidin-1-yl)-2-[4-(2-pyrrolidin-1-yl-ethyl)-phenylamino]-nicotinamide] | < 100 nM | – | < 100 nM
